# Data reported in publication PMC11912728, “L-asparaginase from the novel Fusarium falciforme AUMC 16563: extraction, purification, characterization, and cytotoxic effects on PC-3, HePG-2, HCT-116, and MCF-7 cell lines” (BMC Microbiology, 2025).
# System: T1, L-asparaginase (pure asparaginase) from Fusarium falciforme AUMC 16563
# T1 construct: native extracellular enzyme purified from culture supernatant (ethanol, DEAE-cellulose, Sephacryl S-200 HR)
# Experiment: Nesslerization (ammonia release, […] nm), Lineweaver-Burk
# Type: biochemical
# Settings: substrate 2.0-20.0 mM; pH and temperature of the kinetic assay not given
row,Structure (SMILES),Km [mM]
1,NC(=O)CC[C@H](N)C(=O)O [L-glutamine],9.12
2,NC(=O)C[C@H](N)C(=O)O [L-asparagine],0.0577
3,N[C@@H](CC(=O)O)C(=O)O [aspartic acid],10.1
4,N[C@@H](CCC(=O)O)C(=O)O [glutamic acid],12.2
